# Values joined by “and” are separate entries in the source; they are usually repeats but may differ in a detail not shown here. Identical values can stand only once. Toxic doses and inconclusive results are not listed.
# System: CD2F1 mice, L1210 leukemia ip, survival T/C
# Experiment: NCI In Vivo Anticancer Drug Screen. Data for tumor model L1210 Leukemia (intraperitoneal) in CD2F1 (CDF1) mice
# Settings: higher = longer survival
# In short: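 Mice carrying a transplanted tumor received test compound or vehicle alone. The value is the measurement in the treated group divided by that in the vehicle-treated control group.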
# [1] = endpoint: mean survival time, dose: 50.0 mg/kg/injection, schedule: Q01DX009 (ip), vehicle: saline with Tween-80
# [2] = endpoint: mean survival time, dose: 100.0 mg/kg/injection, schedule: Q01DX009 (ip), vehicle: saline with Tween-80
# [3] = endpoint: mean survival time, dose: 200.0 mg/kg/injection, schedule: Q01DX009 (ip), vehicle: saline with Tween-80
# [4] = endpoint: mean survival time, dose: 100.0 mg/kg/injection, schedule: Q04DX003 (ip), vehicle: saline with Tween-80
# [5] = endpoint: mean survival time, dose: 200.0 mg/kg/injection, schedule: Q04DX003 (ip), vehicle: saline with Tween-80
# [6] = endpoint: mean survival time, dose: 400.0 mg/kg/injection, schedule: Q01DX009 (ip), vehicle: saline with Tween-80
# [7] = endpoint: mean survival time, dose: 400.0 mg/kg/injection, schedule: Q04DX003 (ip), vehicle: saline with Tween-80
# [8] = endpoint: mean survival time, dose: 100.0 mg/kg/injection, schedule: Q01DX001 (ip), vehicle: saline with Tween-80
# [9] = endpoint: mean survival time, dose: 200.0 mg/kg/injection, schedule: Q01DX001 (ip), vehicle: saline with Tween-80
# [10] = endpoint: mean survival time, dose: 400.0 mg/kg/injection, schedule: Q01DX001 (ip), vehicle: saline with Tween-80
# [11] = endpoint: mean survival time, dose: 12.5 mg/kg/injection, schedule: Q01DX009 (ip), vehicle: saline with Tween-80
# [12] = endpoint: mean survival time, dose: 25.0 mg/kg/injection, schedule: Q01DX009 (ip), vehicle: saline with Tween-80
# [13] = endpoint: mean survival time, dose: 100.0 mg/kg/injection, schedule: Q04DX003 (ip), vehicle: saline
# [14] = endpoint: mean survival time, dose: 200.0 mg/kg/injection, schedule: Q04DX003 (ip), vehicle: saline
# [15] = endpoint: mean survival time, dose: 400.0 mg/kg/injection, schedule: Q04DX003 (ip), vehicle: saline
structure (smiles),measurement,setting,value
CC(C)[S-].CC(C)[S-].[Pt+2].c1ccc([PH+](c2ccccc2)c2ccccc2)cc1.c1ccc([PH+](c2ccccc2)c2ccccc2)cc1,T/C,"endpoint: mean survival time, dose: 3.13 mg/kg/injection, schedule: Q04DX003 (sc), vehicle: distilled water + Tween-80",96 % of control
same,T/C,"endpoint: mean survival time, dose: 6.25 mg/kg/injection, schedule: Q04DX003 (sc), vehicle: distilled water + Tween-80",100 % of control
same,T/C,"endpoint: mean survival time, dose: 12.5 mg/kg/injection, schedule: Q04DX003 (sc), vehicle: distilled water + Tween-80",92 % of control
same,T/C,"endpoint: mean survival time, dose: 50.0 mg/kg/injection, schedule: Q04DX003 (sc), vehicle: distilled water + Tween-80",87 % of control
same,T/C,"endpoint: mean survival time, dose: 200.0 mg/kg/injection, schedule: Q04DX003 (sc), vehicle: distilled water + Tween-80",89 % of control
CCCCCC(=O)CCCC,T/C,[1],109 % of control
same,T/C,[2],102 % of control
same,T/C,[3],105 % of control
C(=C\c1ccc2ccccc2n1)/c1ccc2c(c1)OCO2,T/C,[2],96 % of control
same,T/C,[4],102 % of control
same,T/C,[3],96 % of control
same,T/C,[5],102 % of control
same,T/C,[6],95 % of control
same,T/C,[7],101 % of control
N=C1CCCS1,T/C,"endpoint: median survival time, dose: 25.0 mg/kg/injection, schedule: Q01DX009 (ip), vehicle: saline",112 % of control
same,T/C,"endpoint: median survival time, dose: 50.0 mg/kg/injection, schedule: Q01DX009 (ip), vehicle: saline",116 % of control
same,T/C,"endpoint: median survival time, dose: 100.0 mg/kg/injection, schedule: Q01DX009 (ip), vehicle: saline",122 % of control
CC(=O)NC(C=O)C(O)C1OC(c2ccccc2)OCC1O (configuration not stated),T/C,[8],97 % of control
same,T/C,[2],95 % of control
same,T/C,[9],97 % of control
same,T/C,[3],98 % of control
same,T/C,[10],94 % of control
same,T/C,[6],92 % of control
COc1cc(/C=N\NC(=O)CNC(=O)Nc2cccc(Cl)c2)ccc1O,T/C,[11],91 % of control
same,T/C,[12],91 % of control
same,T/C,[1],91 % of control
CCCCCCCCCCCCCC[N+]1(C)CCC[N+](C)(CCCCCCCCCCCCCC)CC1 (configuration not stated),T/C,"endpoint: mean survival time, dose: 100.0 mg/kg/injection, schedule: Q04DX003 (ip), vehicle: other",103 % of control
same,T/C,"endpoint: mean survival time, dose: 200.0 mg/kg/injection, schedule: Q04DX003 (ip), vehicle: other",88 % of control
OC(c1ccccc1)(c1ccc2ccccc2n1)c1cccs1 (configuration not stated),T/C,[13],102 % of control
same,T/C,[14],90 % of control
same,T/C,[15],90 % of control
CN(C)N=Nc1c(F)c(F)c(F)c(F)c1F,T/C,"endpoint: mean survival time, dose: 12.5 mg/kg/injection, schedule: Q01DX009 (ip), vehicle: other",98 % of control
same,T/C,"endpoint: mean survival time, dose: 25.0 mg/kg/injection, schedule: Q01DX009 (ip), vehicle: other",102 % of control
same,T/C,[12],106 % of control
same,T/C,"endpoint: mean survival time, dose: 50.0 mg/kg/injection, schedule: Q01DX009 (ip), vehicle: other",104 % of control
same,T/C,[1],104 % of control
same,T/C,"endpoint: mean survival time, dose: 100.0 mg/kg/injection, schedule: Q01DX009 (ip), vehicle: other",104 % of control
same,T/C,[2],107 % of control
same,T/C,"endpoint: mean survival time, dose: 200.0 mg/kg/injection, schedule: Q01DX009 (ip), vehicle: other",115 % of control
O=C(c1ccc(Cl)cc1)C1CC(Br)C(Br)CC1C(=O)c1ccc(Cl)cc1 (configuration not stated),T/C,[2],96 % of control
same,T/C,[4],101 % of control
same,T/C,[3],98 % of control
same,T/C,[5],98 % of control
same,T/C,[6],100 % of control
same,T/C,[7],98 % of control
Nc1cc(Br)cc(Br)c1,T/C,[4],94 % of control
same,T/C,[5],105 % of control
same,T/C,[7],94 % of control
Cc1ccc(S(=O)c2ccc(C)cc2)cc1,T/C,"endpoint: mean survival time, dose: 100.0 mg/kg/injection, schedule: Q01DX001 (ip), vehicle: Klucel (hydroxypropylcellulose) (HPC)",101 % of control
same,T/C,[8],100 % of control
same,T/C,"endpoint: mean survival time, dose: 200.0 mg/kg/injection, schedule: Q01DX001 (ip), vehicle: Klucel (hydroxypropylcellulose) (HPC)",89 % of control
same,T/C,[9],103 % of control
same,T/C,"endpoint: mean survival time, dose: 400.0 mg/kg/injection, schedule: Q01DX001 (ip), vehicle: Klucel (hydroxypropylcellulose) (HPC)",93 % of control
same,T/C,[10],100 % of control
O=C(O)C(O)C(O)C(O)C(O)CO.O=C(O)C(O)C(O)C(O)C(O)CO.[NH-]C1CCCCC1[NH-].[Pt+2] (configuration not stated),T/C,"endpoint: mean survival time, dose: 3.13 mg/kg/injection, schedule: Q04DX003 (ip), vehicle: other",123 % of control
same,T/C,"endpoint: mean survival time, dose: 6.25 mg/kg/injection, schedule: Q04DX003 (ip), vehicle: saline",119 % of control
same,T/C,"endpoint: mean survival time, dose: 12.5 mg/kg/injection, schedule: Q04DX003 (ip), vehicle: saline",166 % of control
same,T/C,"endpoint: mean survival time, dose: 25.0 mg/kg/injection, schedule: Q04DX003 (ip), vehicle: other",162 % of control
same,T/C,"endpoint: mean survival time, dose: 25.0 mg/kg/injection, schedule: Q04DX003 (ip), vehicle: saline",304 % of control
same,T/C,"endpoint: mean survival time, dose: 50.0 mg/kg/injection, schedule: Q04DX003 (ip), vehicle: other",231 % of control
same,T/C,"endpoint: mean survival time, dose: 50.0 mg/kg/injection, schedule: Q04DX003 (ip), vehicle: saline",281 % of control and 225 % of control
same,T/C,[13],306 % of control and 280 % of control
CC(C)CCNCCO,T/C,"endpoint: mean survival time, dose: 75.0 mg/kg/injection, schedule: Q01DX001 (ip), vehicle: saline",102 % of control
same,T/C,"endpoint: mean survival time, dose: 150.0 mg/kg/injection, schedule: Q01DX001 (ip), vehicle: saline",102 % of control
O=C1CCC2=C(CCC3(C2)OCCO3)N1,T/C,[2],94 % of control
same,T/C,[13],96 % of control
same,T/C,[3],102 % of control
same,T/C,[14],103 % of control
same,T/C,[6],90 % of control
same,T/C,[15],100 % of control
CCOCCc1ccncc1,T/C,[13],101 % of control
same,T/C,[14],104 % of control
O=CNc1cccc2ccc3cc4ccccc4cc3c12,T/C,[1],90 % of control
same,T/C,[2],88 % of control
same,T/C,[4],94 % of control
same,T/C,[3],93 % of control
same,T/C,[5],88 % of control
O/N=C1\c2ccccc2-c2ccc(F)cc21,T/C,"endpoint: mean survival time, dose: 50.0 mg/kg/injection, schedule: Q01DX001 (ip), vehicle: carboxymethylcellulose (CMC)",104 % of control
same,T/C,"endpoint: mean survival time, dose: 100.0 mg/kg/injection, schedule: Q01DX001 (ip), vehicle: carboxymethylcellulose (CMC)",108 % of control
same,T/C,"endpoint: mean survival time, dose: 200.0 mg/kg/injection, schedule: Q01DX001 (ip), vehicle: carboxymethylcellulose (CMC)",104 % of control
same,T/C,"endpoint: mean survival time, dose: 400.0 mg/kg/injection, schedule: Q01DX001 (ip), vehicle: carboxymethylcellulose (CMC)",102 % of control
CN(C)CC#N,T/C,"endpoint: mean survival time, dose: 5.0 mg/kg/injection, schedule: Q01DX009 (ip), vehicle: saline sonified",97 % of control
same,T/C,"endpoint: mean survival time, dose: 5.0 mg/kg/injection, schedule: Q04DX003 (ip), vehicle: saline",103 % of control
same,T/C,"endpoint: mean survival time, dose: 10.0 mg/kg/injection, schedule: Q01DX009 (ip), vehicle: saline sonified",97 % of control
same,T/C,"endpoint: mean survival time, dose: 10.0 mg/kg/injection, schedule: Q04DX003 (ip), vehicle: saline",97 % of control
same,T/C,"endpoint: mean survival time, dose: 20.0 mg/kg/injection, schedule: Q01DX009 (ip), vehicle: saline sonified",98 % of control
same,T/C,"endpoint: mean survival time, dose: 20.0 mg/kg/injection, schedule: Q04DX003 (ip), vehicle: saline",95 % of control
CCC(=O)Nc1nn[nH]n1,T/C,"endpoint: mean survival time, dose: 100.0 mg/kg/injection, schedule: Q04DX002 (ip), vehicle: saline with Tween-80",105 % of control
same,T/C,"endpoint: mean survival time, dose: 200.0 mg/kg/injection, schedule: Q04DX002 (ip), vehicle: saline with Tween-80",102 % of control
same,T/C,"endpoint: mean survival time, dose: 400.0 mg/kg/injection, schedule: Q04DX002 (ip), vehicle: saline with Tween-80",94 % of control
C[C@H](CCC[C@H](C)OS(=O)(=O)c1ccccc1)OS(=O)(=O)c1ccccc1,T/C,[11],101 % of control and 110 % of control
same,T/C,[6],114 % of control and 104 % of control
CC1CCC(NC(=O)NCCCl)CC1 (configuration not stated),T/C,[8],98 % of control
same,T/C,[9],109 % of control
same,T/C,[10],101 % of control
FC(F)(F)C(Cl)Br (configuration not stated),T/C,[2],98 % of control
same,T/C,"endpoint: mean survival time, dose: 100.0 mg/kg/injection, schedule: Q01DX009 (ip), vehicle: saline",97 % of control
same,T/C,[3],96 % of control
same,T/C,"endpoint: mean survival time, dose: 200.0 mg/kg/injection, schedule: Q01DX009 (ip), vehicle: saline",98 % of control
same,T/C,[6],95 % of control
same,T/C,"endpoint: mean survival time, dose: 400.0 mg/kg/injection, schedule: Q01DX009 (ip), vehicle: saline",103 % of control
Cc1cn(C2CC(O)C(Cn3ccc4ccccc43)O2)c(=O)[nH]c1=O (configuration not stated),T/C,"endpoint: mean survival time, dose: 12.5 mg/kg/injection, schedule: Q01DX005 (ip), vehicle: Klucel (hydroxypropylcellulose) (HPC)",94 % of control
same,T/C,"endpoint: mean survival time, dose: 25.0 mg/kg/injection, schedule: Q01DX005 (ip), vehicle: Klucel (hydroxypropylcellulose) (HPC)",90 % of control
CCC1(O)C(=O)OCc2c1cc1n(c2=O)Cc2cc3ccc(CO)cc3nc2-1 (configuration not stated),T/C,"endpoint: median survival time, dose: 4.0 mg/kg/injection, schedule: Q04DX002 (ip), vehicle: saline with Tween-80",100 % of control
same,T/C,"endpoint: median survival time, dose: 8.0 mg/kg/injection, schedule: Q04DX002 (ip), vehicle: saline with Tween-80",113 % of control
same,T/C,"endpoint: median survival time, dose: 16.0 mg/kg/injection, schedule: Q04DX002 (ip), vehicle: saline with Tween-80",98 % of control
same,T/C,"endpoint: median survival time, dose: 32.0 mg/kg/injection, schedule: Q04DX002 (ip), vehicle: saline with Tween-80",108 % of control
